Values joined by “and” are separate entries in the source; they are usually repeats but may differ in a detail not shown here. Equal values may be shown once. Results filed as inconclusive are left out. *1 amine or outer side, *2 acyl side, *3 side chain or, on linkers, in order; H or OH if unused. Where a SMILES comes first, the peptide text is derived from it. Bridges are numbered along the chain shown (N, C = ends). Roman numbers before positions name the chains, in order. [ ]: non-standard residue; d: D form. Actinocin(9to1) = Cc1c2oc3c(C)ccc(C(=O)[*:1])c3nc-2c(C(=O)[*:2])c(N)c1=O; aThr = C[C@H](O)[C@H](N)C(=O)O; NMeV = CN[C@H](C(=O)O)C(C)C; Sar = CNCC(=O)O
Tested on: mice, P1798 lymphosarcoma sc, survival or tumor weight T/C
Assay: NCI In Vivo Anticancer Drug Screen. Data for tumor model P1798 Lymphosarcoma (subcutaneous) in unknown mice
Description: The antitumor activity of compounds was measured in mice bearing transplantable tumors. Survival or tumor size were measured and the results are expressed as the measurement made in the treated group (T) divided by the measurement made in the vehicle treated control group (C). The tumor model used in this assay is P1798 Lymphosarcoma (subcutaneous) in unknown mice

[1] = endpoint: mean tumor weight, dose: 62.5 mg/kg/injection, schedule: Q01DX010 (ip), vehicle: carboxymethylcellulose (CMC), higher = larger tumour
[2] = endpoint: mean tumor weight, dose: 125.0 mg/kg/injection, schedule: Q01DX010 (ip), vehicle: carboxymethylcellulose (CMC), higher = larger tumour
[3] = endpoint: mean tumor weight, dose: 250.0 mg/kg/injection, schedule: Q01DX010 (ip), vehicle: carboxymethylcellulose (CMC), higher = larger tumour
[4] = endpoint: mean tumor weight, dose: 500.0 mg/kg/injection, schedule: Q01DX010 (ip), vehicle: carboxymethylcellulose (CMC), higher = larger tumour
[5] = endpoint: mean tumor weight, dose: 1000.0 mg/kg/injection, schedule: Q01DX010 (ip), vehicle: carboxymethylcellulose (CMC), higher = larger tumour

## CN(Cc1cnc2nc(N)nc(N)c2n1)c1ccc(C(=O)N[C@@H](CCC(=O)O)C(=O)O)cc1
endpoint: mean tumor weight, dose: 0.15 mg/kg/injection, schedule: Q01DX010 (ip), vehicle: other, higher = larger tumour
  T/C: 79 % of control and 101 % of control
endpoint: mean tumor weight, dose: 0.16 mg/kg/injection, schedule: Q01DX010 (ip), vehicle: other, higher = larger tumour
  T/C: 118 % of control
endpoint: mean tumor weight, dose: 0.39 mg/kg/injection, schedule: Q01DX010 (sc), vehicle: other, higher = larger tumour
  T/C: 28 % of control
endpoint: mean tumor weight, dose: 0.5 mg/kg/injection, schedule: Q01DX011 (ip), vehicle: carboxymethylcellulose (CMC), higher = larger tumour
  T/C: 33 % of control
endpoint: mean tumor weight, dose: 0.65 mg/kg/injection, schedule: Q01DX010 (sc), vehicle: other, higher = larger tumour
  T/C: 50 % of control
endpoint: mean tumor weight, dose: 1.0 mg/kg/injection, schedule: Q01DX011 (ip), vehicle: carboxymethylcellulose (CMC), higher = larger tumour
  T/C: 1 % of control
endpoint: mean tumor weight, dose: 1.08 mg/kg/injection, schedule: Q01DX010 (sc), vehicle: other, higher = larger tumour
  T/C: 18 % of control
endpoint: mean tumor weight, dose: 11.0 mg/kg/injection, schedule: Q01DX001 (ip), vehicle: carboxymethylcellulose (CMC), higher = larger tumour
  T/C: 78 % of control
endpoint: mean tumor weight, dose: 22.0 mg/kg/injection, schedule: Q01DX001 (ip), vehicle: carboxymethylcellulose (CMC), higher = larger tumour
  T/C: 74 % of control
endpoint: mean tumor weight, dose: 43.0 mg/kg/injection, schedule: Q01DX001 (ip), vehicle: carboxymethylcellulose (CMC), higher = larger tumour
  T/C: 44 % of control
endpoint: median survival time, dose: 0.31 mg/kg/injection, schedule: Q01DX010 (ip), vehicle: sodium bicarbonate, higher = longer survival
  T/C: 101 % of control
endpoint: median survival time, dose: 0.62 mg/kg/injection, schedule: Q01DX010 (ip), vehicle: sodium bicarbonate, higher = longer survival
  T/C: 103 % of control
endpoint: median survival time, dose: 0.63 mg/kg/injection, schedule: Q01DX010 (ip), vehicle: sodium bicarbonate, higher = longer survival
  T/C: 103 % of control
endpoint: median survival time, dose: 1.25 mg/kg/injection, schedule: Q01DX010 (ip), vehicle: sodium bicarbonate, higher = longer survival
  T/C: 113 % of control
endpoint: median survival time, dose: 2.5 mg/kg/injection, schedule: Q01DX010 (ip), vehicle: sodium bicarbonate, higher = longer survival
  T/C: 33 % of control
endpoint: median survival time, dose: 4.0 mg/kg/injection, schedule: Q04DX007 (ip), vehicle: sodium bicarbonate, higher = longer survival
  T/C: 76 % of control
endpoint: median survival time, dose: 5.0 mg/kg/injection, schedule: Q01DX010 (ip), vehicle: sodium bicarbonate, higher = longer survival
  T/C: 37 % of control
endpoint: median survival time, dose: 8.0 mg/kg/injection, schedule: Q04DX007 (ip), vehicle: sodium bicarbonate, higher = longer survival
  T/C: 76 % of control
endpoint: median survival time, dose: 16.0 mg/kg/injection, schedule: Q04DX007 (ip), vehicle: saline, higher = longer survival
  T/C: 161 % of control
endpoint: median survival time, dose: 16.0 mg/kg/injection, schedule: Q04DX007 (ip), vehicle: sodium bicarbonate, higher = longer survival
  T/C: 74 % of control
endpoint: median survival time, dose: 32.0 mg/kg/injection, schedule: Q04DX007 (ip), vehicle: saline, higher = longer survival
  T/C: 170 % of control
endpoint: median survival time, dose: 32.0 mg/kg/injection, schedule: Q04DX007 (ip), vehicle: sodium bicarbonate, higher = longer survival
  T/C: 29 % of control
endpoint: median survival time, dose: 64.0 mg/kg/injection, schedule: Q04DX007 (ip), vehicle: sodium bicarbonate, higher = longer survival
  T/C: 25 % of control

## O=CCC(O)C(O)C(O)CO (stereo unspecified)
endpoint: mean tumor weight, dose: 16.0 mg/kg/injection, schedule: Q01DX010 (ip), vehicle: carboxymethylcellulose (CMC), higher = larger tumour
  T/C: 67 % of control
endpoint: mean tumor weight, dose: 31.2 mg/kg/injection, schedule: Q01DX010 (ip), vehicle: carboxymethylcellulose (CMC), higher = larger tumour
  T/C: 74 % of control
[1]
  T/C: 70 % of control
[2]
  T/C: 36 % of control and 61 % of control
[3]
  T/C: 44 % of control
[4]
  T/C: 42 % of control
[5]
  T/C: 19 % of control

## Cc1c2oc3c(C)ccc(C(=O)N[C@@H]4C(=O)N[C@H](C(C)C)C(=O)N5CCC[C@H]5C(=O)N(C)CC(=O)N(C)[C@@H](C(C)C)C(=O)O[C@H]4C)c3nc-2c(C(=O)N[C@@H]2C(=O)N[C@H](C(C)C)C(=O)N3CCC[C@H]3C(=O)N(C)CC(=O)N(C)[C@@H](C(C)C)C(=O)O[C@H]2C)c(N)c1=O (I: [aThr][dV]P[Sar][NMeV] / II: [aThr][dV]P[Sar][NMeV]; ester I:1-I:C, II:1-II:C; linker I:N-II:N via Actinocin(9to1))
endpoint: mean tumor weight, dose: 2.0 micrograms/kg/injection, schedule: Q01DX010 (ip), vehicle: saline, higher = larger tumour
  T/C: 117 % of control
endpoint: mean tumor weight, dose: 20.0 micrograms/kg/injection, schedule: Q01DX010 (ip), vehicle: saline, higher = larger tumour
  T/C: 46 % of control

## OCC1OC(n2cnc3c(Cl)ncnc32)C(O)C1O (stereo unspecified)
[1]
  T/C: 104 % of control
[2]
  T/C: 107 % of control
[3]
  T/C: 92 % of control
[4]
  T/C: 91 % of control and 95 % of control
[5]
  T/C: 79 % of control

## O=C(O)CCCc1ccc(N(CCCl)CCCl)cc1
endpoint: mean tumor weight, dose: 3.12 mg/kg/injection, schedule: Q01DX010 (ip), vehicle: carboxymethylcellulose (CMC), higher = larger tumour
  T/C: 86 % of control
endpoint: mean tumor weight, dose: 6.25 mg/kg/injection, schedule: Q01DX010 (ip), vehicle: carboxymethylcellulose (CMC), higher = larger tumour
  T/C: 89 % of control
endpoint: mean tumor weight, dose: 12.5 mg/kg/injection, schedule: Q01DX010 (ip), vehicle: carboxymethylcellulose (CMC), higher = larger tumour
  T/C: 104 % of control
endpoint: mean tumor weight, dose: 25.0 mg/kg/injection, schedule: Q01DX010 (ip), vehicle: carboxymethylcellulose (CMC), higher = larger tumour
  T/C: 73 % of control

— PubChem BioAssay AID290 (DTP/NCI, 2004)
